Results from patent US20210361688A1 (priority 2020, published 2021).

What was measured:
[1] = tested on: SARS-CoV-2 isolate Australia/VIC01/2020; conditions: cited from earlier work
pseudorabies virus (PRV) = conditions: mouse, in vivo; cited from earlier work
[2] = Estimated ivermectin concentration delivered into the respiratory pathways per nebulization; design: species or system human; conditions: about 10% of nebulized solution reaches the respiratory pathways; approx. 3 mg into 150 cc dead space
Method: 3 mL of the solution was administered to the subject directly into the lungs in the form of an inhalable mist.

[3] = cited from earlier work
[4] = ivermectin 5 μM from 2 hours post-infection, 24 h, Vero-hSLAM cells

Substance: ivermectin
- IC50 concentration necessary to inhibit viral replication ([1]; as quoted in Example 2): 0.00175 mg/cc
- reduction in viral RNA versus DMSO control, cell associated viral RNA (total virus) [1, 4]: 99.8%
- reduction in viral RNA versus DMSO control, supernatant (released virions) [1, 4]: 93%
- fold reduction of viral RNA ([1]; ivermectin 5 μM, by hour 48, effect maintained at 72 hours): 5000 fold
- IC50 ([1]; serial dilutions of ivermectin, Vero-hSLAM cells, read-out: IC50 against SARS-CoV-2): ~2000 nM
- survival in PRV-infected mice (pseudorabies virus (PRV)): increase survival
- ivermectin delivered per cc of dead space per nebulization [2]: approximately 0.02 mg per cc
- tolerability of high doses ([3]; adults or children): well tolerated
- maximum plasma concentration ([3]; humans, highest reported dose of approximately 1700 μg/kg): 0.28 µM
